Type in all cases: cell-based
One assay has as its target T1, hTRPA1 (Homo sapiens, UniProt O75762).
T1 construct: expressed in transfected cells; host or cells: HEK293
Description: Whole-cell patch-clamp of TRPA1 currents activated by AITC in HEK293 cells. The following applies: flopropione 100 μM, AITC 300 μM. The protocol: (§1) HEK293 cells were cultured in Dulbecco’s modified Eagle’s medium (DMEM, Gibco) containing 4.5 g/L D-glucose supplemented with 10% fetal bovine serum based at 37 °C with 5% CO2. For whole-cell patch-clamp recordings, cells were grown in glass coverslips for 24 h before transient transfections with 3000 ng cDNAs of hTRPV3 (gene accession number BC104866.1), hTRPV1 (accession number NM_080704.3), mTRPV2 (accession number NM_011706.2), hTRPV4 (accession number NM_021625.5), hTRPA1 (accession number NM_007332.3) and hTRPM8 (accession number NM_024080.5) into HEK293 cells grown in a 35-mm cell culture dish using Lipofectamine 2000 (Invitrogen). Cells were used 18 ∼ 24 h after transfection. All WT or mutant hTRPV3 plasmids were validated by DNA sequencing.
(§2) Whole-cell patch clamp recordings of wild-type and mutants were carried out at room temperature using the HEKA EPC10 amplifier powered by PatchMaster software (HEKA) or MultiClamp 700B amplifier driven by Clampex 11.0.3 software. The borosilicate glass pipettes were pulled and fire-polished to 3∼6 MΩ using a DMZ universal electrode puller (Zeitz-Instruments, GmbH). Pipette solution and bath solution both contained (in mM): 130 NaCl, three HEPES, and 0.2 EDTA (pH = 7.4). Cell membrane potential was held at 0 mV, currents were recorded at a voltage ramp from −100 to +100 mV for 500-ms and analyzed at ±80 mV.
For orientation: The patch-clamp technique gives a direct electrical read-out from membranes.

Another assay deals with T2, hTRPV3 single channel (Homo sapiens, UniProt Q8NET8).
T2 construct: expressed in transfected cells; host or cells: HEK293
T2 sequence (Q8NET8 1-790): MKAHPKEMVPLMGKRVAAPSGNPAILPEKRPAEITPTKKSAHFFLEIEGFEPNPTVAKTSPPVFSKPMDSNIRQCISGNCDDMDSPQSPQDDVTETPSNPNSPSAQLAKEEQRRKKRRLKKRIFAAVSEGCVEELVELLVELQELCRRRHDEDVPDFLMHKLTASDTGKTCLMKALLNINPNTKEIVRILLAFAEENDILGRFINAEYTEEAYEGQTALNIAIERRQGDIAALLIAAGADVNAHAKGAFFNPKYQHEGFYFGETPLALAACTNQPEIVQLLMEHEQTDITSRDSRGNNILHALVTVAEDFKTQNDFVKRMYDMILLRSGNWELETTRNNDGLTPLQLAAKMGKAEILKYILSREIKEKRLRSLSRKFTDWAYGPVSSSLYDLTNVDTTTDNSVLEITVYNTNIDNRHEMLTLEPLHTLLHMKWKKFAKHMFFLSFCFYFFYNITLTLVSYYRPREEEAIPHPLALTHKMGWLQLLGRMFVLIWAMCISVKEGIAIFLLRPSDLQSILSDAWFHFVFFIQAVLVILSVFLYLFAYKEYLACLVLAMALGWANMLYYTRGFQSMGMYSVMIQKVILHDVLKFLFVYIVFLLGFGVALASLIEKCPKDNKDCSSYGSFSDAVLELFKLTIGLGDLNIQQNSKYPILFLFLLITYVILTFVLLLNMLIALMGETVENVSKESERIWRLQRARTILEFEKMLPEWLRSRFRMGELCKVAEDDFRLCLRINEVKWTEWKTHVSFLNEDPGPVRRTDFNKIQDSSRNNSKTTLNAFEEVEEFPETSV
The assay can be described thus: Inside-out single-channel recordings of TRPV3 in HEK293 cells. Conditions: 50 μM flopropione in presence of 30 μM 2-APB, −60 mV. The source says:
For single-channel recordings, borosilicate glass pipettes were pulled from borosilicate glass capillaries and fire-polished to the resistance between 6 and 10 MΩ using a DMZ universal electrode puller (Zeitz-Instruments, GmbH). For inside-out single-channel recordings, both pipette and external solutions contained (in mM): 130 NaCl, three HEPES, and 0.2 EDTA (pH = 7.4). Membrane potential was clamped at −60 mV and currents were digitized at 10 kHz and filtered at 2 kHz.

For the next assay, the target named is T3, mTRPV2 (Mus musculus, UniProt Q9WTR1).
T3 construct: expressed in transfected cells; host or cells: HEK293
T3 sequence (Q9WTR1 1-756): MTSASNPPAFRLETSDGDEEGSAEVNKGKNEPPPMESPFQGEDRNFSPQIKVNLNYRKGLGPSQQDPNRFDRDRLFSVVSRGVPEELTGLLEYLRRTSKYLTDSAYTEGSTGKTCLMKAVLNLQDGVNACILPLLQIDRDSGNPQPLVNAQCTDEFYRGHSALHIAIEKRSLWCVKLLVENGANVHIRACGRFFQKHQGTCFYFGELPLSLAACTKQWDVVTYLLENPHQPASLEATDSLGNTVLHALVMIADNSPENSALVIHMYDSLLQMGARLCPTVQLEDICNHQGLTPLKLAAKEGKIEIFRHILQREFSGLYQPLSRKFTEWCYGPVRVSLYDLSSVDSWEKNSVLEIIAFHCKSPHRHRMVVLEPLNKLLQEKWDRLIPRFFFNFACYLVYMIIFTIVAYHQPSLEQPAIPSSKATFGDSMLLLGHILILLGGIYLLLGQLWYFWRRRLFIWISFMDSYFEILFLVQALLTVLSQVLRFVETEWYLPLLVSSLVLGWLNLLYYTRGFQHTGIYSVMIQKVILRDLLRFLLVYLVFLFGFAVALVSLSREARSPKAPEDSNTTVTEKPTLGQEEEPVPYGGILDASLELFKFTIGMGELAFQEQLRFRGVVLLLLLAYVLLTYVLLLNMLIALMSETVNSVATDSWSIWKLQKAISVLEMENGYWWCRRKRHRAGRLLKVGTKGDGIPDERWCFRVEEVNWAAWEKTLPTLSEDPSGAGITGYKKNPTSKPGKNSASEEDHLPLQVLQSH
Description: Whole-cell patch-clamp of TRPV2 currents activated by 2-APB in HEK293 cells. Conditions: flopropione 100 μM, 2-APB 2 mM. The protocol:
as §1, §2

The record followed here is paper PMC10828444, “Selective inhibition of overactive warmth-sensitive Ca^2+-permeable TRPV3 channels by antispasmodic agent flopropione for alleviation of skin inflammation” (The Journal of Biological Chemistry, 2023).

T1 sequence (O75762 whole entry): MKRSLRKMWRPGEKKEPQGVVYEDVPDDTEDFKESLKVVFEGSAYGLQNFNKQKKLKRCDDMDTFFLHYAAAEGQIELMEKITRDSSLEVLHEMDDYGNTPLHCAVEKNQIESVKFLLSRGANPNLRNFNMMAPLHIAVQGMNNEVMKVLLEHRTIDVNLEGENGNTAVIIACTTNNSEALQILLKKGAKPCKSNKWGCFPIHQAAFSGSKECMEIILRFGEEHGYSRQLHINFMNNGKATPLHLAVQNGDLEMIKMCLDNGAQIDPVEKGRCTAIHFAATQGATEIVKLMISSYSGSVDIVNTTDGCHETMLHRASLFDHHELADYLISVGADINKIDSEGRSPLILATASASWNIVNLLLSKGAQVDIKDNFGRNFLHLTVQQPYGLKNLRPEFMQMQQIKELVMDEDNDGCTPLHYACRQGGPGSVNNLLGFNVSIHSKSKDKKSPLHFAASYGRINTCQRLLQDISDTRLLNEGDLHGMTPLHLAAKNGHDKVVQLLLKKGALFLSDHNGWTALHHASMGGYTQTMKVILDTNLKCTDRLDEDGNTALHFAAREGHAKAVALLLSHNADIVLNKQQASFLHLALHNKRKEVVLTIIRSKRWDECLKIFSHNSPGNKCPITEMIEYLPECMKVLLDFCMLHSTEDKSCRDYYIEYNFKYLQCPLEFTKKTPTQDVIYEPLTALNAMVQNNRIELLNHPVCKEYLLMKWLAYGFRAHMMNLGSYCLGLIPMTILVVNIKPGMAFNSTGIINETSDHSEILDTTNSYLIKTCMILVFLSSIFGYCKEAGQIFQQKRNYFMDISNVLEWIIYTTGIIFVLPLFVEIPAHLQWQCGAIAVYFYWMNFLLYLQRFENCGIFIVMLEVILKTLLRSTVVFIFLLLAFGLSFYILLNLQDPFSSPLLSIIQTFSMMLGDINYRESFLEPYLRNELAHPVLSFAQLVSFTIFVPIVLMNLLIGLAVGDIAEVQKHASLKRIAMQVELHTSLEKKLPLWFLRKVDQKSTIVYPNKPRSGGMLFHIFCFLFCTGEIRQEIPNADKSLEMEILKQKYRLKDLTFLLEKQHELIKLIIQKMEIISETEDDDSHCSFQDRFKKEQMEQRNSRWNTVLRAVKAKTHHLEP

The term inhibition denotes how much of the control response was suppressed. Take `CCC(=O)c1c(O)cc(O)cc1O` [flopropione]: on hTRPA1, the “effect on TRPA1 currents” value is given as “no effect”. On hTRPV3 single channel, the “unitary single channel conductance” value is listed as 167.1 ± 9.0 pS. The single-channel open probability on hTRPV3 single channel (n = 4) turned out to be 0.17 ± 0.06. Besides, at mTRPV2, the inhibition at 100 µM was about 60%.
